Results reported in publication PMC10609924, “Cytotoxic Activity of Wild Plant and Callus Extracts of Ageratina pichinchensis and 2,3-Dihydrobenzofuran Isolated from a Callus Culture” (Pharmaceuticals, 2023).
Converted amounts (≈) assume the structure as drawn.

Key:
[1] = test system: HeLa cells (cervical cancer); experiment: Cytotoxic assay (CellTiter 96 AQueous One Solution), HeLa
Protocol: (§1) We evaluated the cytotoxic activity of the ethyl acetate and methanol extracts obtained from different parts of the wild plant A. pichinchensis, including its leaves, stems, and callus cultures. The extracts were evaluated using concentrations of 200, 100, 50, 25, and 12.5 µg/mL against various cell lines (Table 1), including human prostate carcinoma (PC-3), cervical cancer (HeLa), hepatocellular carcinoma (Huh-7), human hepatoma (HepG2) and breast tumor cells (MCF-7). These cell lines represent cell types that, unfortunately, have high incidence and mortality rates globally.
PC-3 (prostate), HeLa (cervical), MCF-7 (breast), and Huh-7 and HepG2 (hepatocellular) human cancer cell lines were purchased from ATCC (Manassas, VA, USA) (Figure 5). We also included an immortalized human epidermal keratinocyte line (HaCat) as a control of non-cancerous cells. PC-3 was grown in RPMI-1640 medium (Sigma Aldrich, St. Louis, MO, USA), while Huh-7, HepG2, HeLa, and HaCat were grown in DMEM medium (Invitrogen, Thermo Fisher Scientific, Waltham, MA, USA) supplemented with 10% SFB and 2 mM glutamine. All cultures were incubated at 37 °C in 5% CO2.
Cells (4 × 10^3 cells/well) were seeded in 96-well plates. The cells were treated with the investigated samples (at 200, 100, 50, 25, and 12.5 µg/mL) and incubated at 37 °C in 5% CO2 for 48 h. Paclitaxel was used as a positive control. For determining the number of viable cells in proliferation we used a CellTiter 96® AQueous One Solution Cell Proliferation Assay kit (Promega, Madison, WI, USA), following the manufacturer’s instructions. Cell viability was determined by absorbance at 450 nm using an automated ELISA reader (Promega, Madison, WI, USA). Stock solutions of all compounds were prepared in DMSO at a maximum concentration of 0.5%. The experiments were conducted in triplicate in three independent experiments. Data were analyzed using the Prism 8.0 statistical program (Graphpad Software Inc., La Jolla, CA, USA) and the half-maximal inhibitory concentrations (IC50) were determined by regression analysis.

[2] = test system: PC-3 cells (human prostate carcinoma); experiment: Cytotoxic assay (CellTiter 96 AQueous One Solution), PC-3
Protocol: as §1
(§2) PC-3 (prostate), HeLa (cervical), MCF-7 (breast), and Huh-7 and HepG2 (hepatocellular) human cancer cell lines were purchased from ATCC (Manassas, VA, USA) (Figure 5). We also included an immortalized human epidermal keratinocyte line (HaCat) as a control of non-cancerous cells. […]
(§3) Cells (4 × 10^3 cells/well) were seeded in 96-well plates. […] Cell viability was determined by absorbance at 450 nm using an automated ELISA reader (Promega, Madison, WI, USA). […] Data were analyzed using the Prism 8.0 statistical program (Graphpad Software Inc., La Jolla, CA, USA) and the half-maximal inhibitory concentrations (IC50) were determined by regression analysis.

[3] = test system: Huh-7 cells (hepatocellular carcinoma); experiment: Cytotoxic assay (CellTiter 96 AQueous One Solution), Huh-7
Protocol: as §1, §2, §3

[4] = test system: HepG2 cells (human hepatoma); experiment: Cytotoxic assay (CellTiter 96 AQueous One Solution), HepG2
Protocol: as §1, §2, §3

[5] = test system: MCF-7 cells (breast tumor cells); experiment: Cytotoxic assay (CellTiter 96 AQueous One Solution), MCF-7
Protocol: as §1, §2, §3

[6] = Cytotoxic assay (CellTiter 96 AQueous One Solution), HaCat selectivity control; conditions: human
Protocol: as §1, §2, §3

[7] = test system: PC-3, HeLa, Huh-7, HepG2, MCF-7 and HaCat cell lines; experiment: Cytotoxic assay, statements over the whole cell line panel; conditions: PTX-treated cell lines
Protocol: as §1, §2, §3

[8] = test system: HaCat cells (immortalized human epidermal keratinocytes); experiment: Cytotoxic assay (CellTiter 96 AQueous One Solution), HaCat selectivity control
Protocol: as §1, §2, §3

Molecule | IC50 ([1]; Homo sapiens, HeLa, 48 h, read-out: Cytotoxic activity (IC50), HeLa) | IC50 ([2]; Homo sapiens, PC-3, 48 h, read-out: Cytotoxic activity (IC50), PC-3) | IC50 ([3]; Homo sapiens, Huh-7, 48 h, read-out: Cytotoxic activity (IC50), Huh-7) | IC50 ([4]; Homo sapiens, HepG2, 48 h, read-out: Cytotoxic activity (IC50), HepG2) | IC50 ([5]; Homo sapiens, MCF7, 48 h, read-out: Cytotoxic activity (IC50), MCF-7) | IC50 at 48 h [6] | IC50 values range in words [7] | Cytotoxic activity (IC50), HeLa [1] | Cytotoxic effect in words, HeLa [1] | Cytotoxic activity (IC50), PC-3 [2] | Cytotoxic activity (IC50), Huh-7 [3] | Cytotoxic activity (IC50), HepG2 [4] | Cytotoxic activity (IC50), MCF-7 [5] | Cytotoxic activity (IC50), HaCat [8]
CC(=O)O[C@H]1C(=O)[C@@]2(C)[C@H]([C@H](OC(=O)c3ccccc3)[C@]3(O)C[C@H](OC(=O)[C@H](O)[C@@H](NC(=O)c4ccccc4)c4ccccc4)C(C)=C1C3(C)C)[C@]1(OC(C)=O)CO[C@@H]1C[C@@H]2O [Paclitaxel, paclitaxel] | 0.017 ± 0.00103 µg/mL (≈ 0.0199 µM) | 0.013 ± 0.00196 µg/mL (≈ 0.0152 µM) | 0.021 ± 0.00273 µg/mL (≈ 0.0246 µM) | 0.00857 µg/mL (≈ 0.01 µM) | 0.018 ± 0.0035 µg/mL (≈ 0.0211 µM) | 0.097 ± 0.0128 µg/mL (≈ 0.114 µM) | nanomolar (nM) range | – | – | – | – | – | – | –
(2S,3R)-5-acetyl-7,3-dihydroxy-2-(1-isopropenyl)-2,3-dihydrobenzofuran [compound 7] | – | – | – | – | – | – | – | 23.86 ± 2.5 µg/mL | remarkable effect on the inhibition of HeLa cells | 80.36 ± 4.63 µg/mL | 79.98 ± 3.78 µg/mL | 74.62 ± 2.02 µg/mL | 107.20 ± 1.52 µg/mL | 123.50 ± 15.17 µg/mL
